From PMC8752738, “A propolis-derived small molecule ameliorates metabolic syndrome in obese mice by targeting the CREB/CRTC2 transcriptional complex” (Nature Communications, 2022)
Where “and” joins values, the source holds several entries; their conditions need not be identical. Equal values may be shown once.

Assays:
Format in all cases: cell-based
[1] = molecular target: T1, CREB / HA-CRTC2 interaction (Mus musculus, UniProt Q01147); assay: Co-immunoprecipitation of HA-CRTC2 with endogenous CREB, primary hepatocytes; conditions: for HA/CREB in CREB-COIP fraction: Fig 2b replicates, AD-HA-CRTC2 +
T1 construct: expressed in transfected cells; host or cells: mouse primary hepatocytes infected with Ad-HA-Crtc2; CREB is endogenous
T1 sequence (Q01147 whole entry): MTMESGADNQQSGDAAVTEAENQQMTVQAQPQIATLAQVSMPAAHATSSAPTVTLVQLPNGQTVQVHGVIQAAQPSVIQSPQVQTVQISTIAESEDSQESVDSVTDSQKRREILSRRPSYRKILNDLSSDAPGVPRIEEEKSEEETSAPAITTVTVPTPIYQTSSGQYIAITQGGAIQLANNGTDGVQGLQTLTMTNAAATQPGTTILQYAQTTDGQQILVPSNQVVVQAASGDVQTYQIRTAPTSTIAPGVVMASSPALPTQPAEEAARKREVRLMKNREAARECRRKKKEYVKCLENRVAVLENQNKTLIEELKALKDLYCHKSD
Protocol: Fig. 2 APC blocks interaction between CREB and CRTC2. a Analysis of GST-CREB immunoprecipitated with overexpressed FLAG-CRTC2 from the lysates of HEK293T cells. APC (10 μM) was added to the culture media for 1 h and the following IP mixture. The relative gray density of FLAG in GST-pull-down fraction is shown as a bar graph (bottom). One of three independent experiments is presented (top, n = 3). Data are represented as mean ± SEM); P values were determined by one-way ANOVA followed Dunnett’s multiple comparisons test. b Analysis of HA-CRTC2 immunoprecipitated with endogenous CREB from primary hepatocyte lysates. APC (10 μM) was added to the culture media for 1-h before 30-min of stimulation with glucagon (Gluc, 100 nM) and the following IP mixture as indicated. Top panel presents one of three independent experiments, and the relative gray density of HA in CREB-IP-faction is shown as a bar graph (bottom, n = 3). Data are represented as mean ± SEM; P values were determined by one-way ANOVA followed Dunnett’s multiple comparisons test. c Immunoblotting analysis of endogenous CREB, CRTC2, and CBP interaction by an anti-CRTC2 antibody from the lysate of primary hepatocytes. APC (10 μM) was added to the culture media for 1-h before 30-min stimulation with glucagon. Related CREB and CBP normalized by CRTC2, respectively, in CRTC2-IP fractions. The top panel presents one of three independent experiments, and the relative gray density of CREB and CBP normalized to CRTC2 in the CRTC2-IP-faction is shown as a bar graph (bottom, n = 3). Data are represented as mean ± SEM; P values were determined by two-way ANOVA followed Bonferroni’s multiple comparisons test. d Immunoblotting analysis of protein GST-CREB recovered HIS-CRTC2-S171A proteins purified from E. coli. The addition of APC (5, 10, or 50 μM) in pull-down mixtures is indicated. The top part presents one of three independent experiments, and the relative gray density of HIS normalized to GST in GST-pull-down faction is shown as a bar graph (bottom, n = 3). Data are represented as mean ± SEM; P values were determined by one-way ANOVA followed Dunnett’s multiple comparisons test (compared with APC = 0).
Immunoblotting and immunoprecipitation assays were performed as previously described, with antibodies recognizing CREB, Ser133-P-CREB, AMPK, P-AMPK, AKT, P-AKT (Cell Signaling), PGC-1α (Merck), CRTC2 (Calbiochem), PCK1 (Santa Cruz), SREBP1 (Santa Cruz), SREBP2 (BD), HA (Convance), LXRα (Santa Cruz), FLAG (Sigma), GST (Covance), HIS (Abmart), GAPDH (AOGMA), α-TUBULIN (Abmart), β-ACTIN (Abmart), and other antibodies (Supplementary Table 3). For immunostaining assays, primary cultured hepatocytes seeded on coverslips were fixed with 4% paraformaldehyde for 20 min, permeabilized with 0.3% Triton X-100 in PBS, and then blocked by 5% normal goat serum and 0.3% Triton X-100 in PBS, followed by incubation with anti-CREB (1:1000), anti-P-CREB (1:1000), or anti-HA (1:3000) antibodies for 1 h at 4 °C. Slides were then washed, and after washing, slides were incubated with fluorochrome-conjugated secondary antibodies (Invitrogen). Slides were then washed and mounted with Vectashield mounting media containing 4, 6-diamidino-2-phenylindole (DAPI).

CREB / CRTC1 interaction = molecular target: T2, CREB / CRTC1 interaction (Homo sapiens, UniProt P16220); assay: Co-immunoprecipitation of GFP-CRTC1 by MYC-CREB, HEK293T; conditions: overexpression HEK293T cells, APC 10 μM
T2 construct: expressed in transfected cells; host or cells: HEK293T
T2 sequence (P16220 whole entry): as the sequence (Q01147 whole entry) above, with D8E counted along it
Protocol: 1 Supplementary Figure 2.
2 a) Immunoblot of HA-P300 recovered from HEK293T cell lysate using GST-CREB beads. APC
3 (10 μM) was incubated with cells for 1-h before FKS (10 nM) stimulation and was included in the
4 following pull-down mixtures (n=3). One of two independent experiments presented here.
5 b) Immunoblot for recovered GFP-CRTC1 or (c) GFP-CRTC3 immunoprecipitated by MYC-CREB
6 from overexpression HEK293T cell line. APC (10 μM) was incubated with cells for 1-h before FKS
7 (10 nM) stimulation and was included in the following pull-down mixtures. One of two independent
8 experiments presented here.
9 d) SPR sonogram traces of APC binding with HIS-CREB proteins immobilized to NTA-chip. The
10 concentration series of APC was as indicated.
11 e) SPR sonogram traces of APC flowing through HIS-CRTC2-S171A proteins immobilized on
12 NTA-chip. The concentration of APC was as indicated.
13 f) The luciferase enzymatic activity of HEK293T incubated with APC. Cells over-expressed
14 luciferase CRE-Luc reporter and were stimulated by FSK (10 nM) for 5-h before lysis, which was
15 then incubated with APC (concentration indicated) for 30 min before luciferase activity determination
16 (n=3 per treatment). Data are represented as mean ± SEM. *, p < 0.05; **, p < 0.01; p values were
17 determined by one-way ANOVA followed Dunnett’s multiple comparisons test. […]

PPARα, RXRα or LXRα = assay: PPRE-LUC reporter in HEK293T; conditions: for relative PPRE-LUC: individual replicates, Supp. Fig.6 c; for relative PPRE-LUC, mean: N=3
Protocol: 1 c) Luciferase reporter activity of PPRE-LUC (PPAR response element driven luciferase reporter) in
2 HEK293T cell transfected with expression plasmids for Ppara, Rxra or Lxra with 8-h incubation of
3 APC (10 µM). One of three independent experiments presented here. Data are represented as
4 mean ± SEM. (n=3 per treatment). *, p < 0.05; **, p < 0.01; p values were determined by two-way

CC(C)=CCc1cc(C=CC(=O)O)cc(CC=C(C)C)c1O [APC, 3,5-diprenyl-4-hydroxycinnamic acid]
HA/CREB in CREB-COIP fraction ([1]; APC +, Gluc +, APC in IP system +): 93.4971 and 123.554 and 124.784 | HA/CREB in CREB-COIP fraction ([1]; APC +, Gluc +, APC in IP system -): 234.39 and 222.083 and 222.525 | HA/CREB in CREB-COIP fraction ([1]; APC +, Gluc -, APC in IP system +): 106.115 and 87.7697 and 106.142 | HA/CREB in CREB-COIP fraction ([1]; APC +, Gluc -, APC in IP system -): 166.202 and 169.06 and 171.069 | HA/CREB in CREB-COIP fraction ([1]; APC -, Gluc +, APC in IP system +): 192.388 and 190.79 and 193.652 | HA/CREB in CREB-COIP fraction ([1]; APC -, Gluc -, APC in IP system +): 107.959 and 107.638 and 128.065 | HA-tagged CRTC2 immunoprecipitated by anti-CREB antibody ([1]; primary hepatocytes, with or without glucagon, APC 10 μM): greatly decreased | interaction of CREB and CRTC1 (CREB / CRTC1 interaction): attenuated | activity of PPRE-luc induced by PPARα, RXRα or LXRα (PPARα, RXRα or LXRα; HEK293T, APC 10 µM, 8-h): did not alter | relative PPRE-LUC, Mean Diff. APC - Ctrl (PPARα, RXRα or LXRα; overexpressed gene: LXRa): 0.2098 | relative PPRE-LUC (PPARα, RXRα or LXRα; overexpressed gene: LXRa): 3.9435 and 4.3354 and 5.6775 | relative PPRE-LUC, mean (PPARα, RXRα or LXRα; overexpressed gene: LXRa): 4.652 | relative PPRE-LUC, Mean Diff. APC - Ctrl (PPARα, RXRα or LXRα; overexpressed gene: PPARa): -2.353 | relative PPRE-LUC (PPARα, RXRα or LXRα; overexpressed gene: PPARa): 39.2490 and 43.4175 and 53.1308 | relative PPRE-LUC, mean (PPARα, RXRα or LXRα; overexpressed gene: PPARa): 45.27 | relative PPRE-LUC, Mean Diff. APC - Ctrl (PPARα, RXRα or LXRα; overexpressed gene: RXRa): 3.509 | relative PPRE-LUC (PPARα, RXRα or LXRα; overexpressed gene: RXRa): 53.5690 and 51.6829 and 53.7514 | relative PPRE-LUC, mean (PPARα, RXRα or LXRα; overexpressed gene: RXRa): 53 | relative PPRE-LUC, Mean Diff. APC - Ctrl (PPARα, RXRα or LXRα; overexpressed gene: pcDNA): -0.0701 | relative PPRE-LUC (PPARα, RXRα or LXRα; overexpressed gene: pcDNA): 0.7140 and 0.9259 and 1.1498 | relative PPRE-LUC, mean (PPARα, RXRα or LXRα; overexpressed gene: pcDNA): 0.9299
